Columns and labels:
[1] = target: T1, mouse DGAT1 (Mus musculus, UniProt Q9Z2A7); test: DGAT1 inhibitory effect test (microsome fraction, [14C]-oleoyl-CoA, triglyceride radioactivity by TLC); format: biochemical; conditions: 0.5 h; concentration of the test compound 0.1 μg/ml; mouse DGAT1 microsomes, 23° C., 30 minutes; read-out: Inhibitory ratio
T1 construct: made in house; host or cells: insect cells (High Five, Sf9, Sf21, etc.), baculovirus expression system (Invitrogen)
T1 sequence (Q9Z2A7 1-498): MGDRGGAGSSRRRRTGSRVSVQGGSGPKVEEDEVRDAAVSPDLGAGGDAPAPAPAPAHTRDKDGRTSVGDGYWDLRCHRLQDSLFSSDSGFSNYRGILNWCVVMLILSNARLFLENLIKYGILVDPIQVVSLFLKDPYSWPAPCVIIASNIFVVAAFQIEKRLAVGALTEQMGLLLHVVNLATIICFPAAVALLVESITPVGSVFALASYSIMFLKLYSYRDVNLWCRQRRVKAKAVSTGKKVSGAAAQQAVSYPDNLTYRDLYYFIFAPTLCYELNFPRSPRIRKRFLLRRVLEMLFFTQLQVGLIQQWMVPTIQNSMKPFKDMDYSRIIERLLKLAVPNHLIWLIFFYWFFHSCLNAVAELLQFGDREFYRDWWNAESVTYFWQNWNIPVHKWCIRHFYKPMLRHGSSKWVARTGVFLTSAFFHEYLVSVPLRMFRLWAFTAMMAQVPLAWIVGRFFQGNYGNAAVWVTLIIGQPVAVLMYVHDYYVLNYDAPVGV
In short: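 Baculovirus-expressed mouse DGAT1 insect-cell microsomes (10 μg) were incubated 30 min at 23 °C, pH 8.0, with 0.5 mM 1,2-dioleoyl-sn-glycerol, 30 μM [14C]-oleoyl-CoA and 0.5% Triton X-100. [14C]-triglyceride was quantified after heptane extraction and TLC. Percent inhibition was taken against vehicle control, with 0-min background subtracted.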

| Structure (SMILES) | melting point | inhibition at 0.1 µg/mL [1] |
| --- | --- | --- |
| CCOc1ccc(C)cc1NC(=O)Nc1ccc(N2CCN(C(=O)Nc3c(Cl)cccc3Cl)CC2)cc1 [Example 134, 4-{4-[3-(2-ethoxy-5-methyl-phenyl)-ureido]-phenyl}-piperazine-1-carboxylic acid (2,6-dichloro-phenyl)-amide] | 159 to 161 °C | ≥ 50% |
| CCOc1ccc(Cl)cc1NC(=O)Nc1ccc(N2CCN(C(=O)Nc3c(Cl)cccc3Cl)CC2)cc1 [Example 135, 4-{4-[3-(5-chloro-2-ethoxy-phenyl)-ureido]-phenyl}-piperazine-1-carboxylic acid (2,6-dichloro-phenyl)-amide] | 135 to 137 °C | ≥ 50% |
| COc1ccc(C)cc1NC(=O)Nc1ccc(N2CCN(C(=O)Nc3ccccc3C(F)(F)F)CC2)nc1 [Example 137, 4-{5-[3-(2-methoxy-5-methyl-phenyl)-ureido]-pyridin-2-yl}-piperazine-1-carboxylic acid (2-trifluoromethyl-phenyl)-amide] | 213 to 214 °C | ≥ 50% |
| COc1ccc(C)cc1NC(=O)Nc1ccc(N2CCN(C(=O)Nc3c(C)cccc3C)CC2)nc1 [Example 138, 4-{5-[3-(2-methoxy-5-methyl-phenyl)-ureido]-pyridin-2-yl}-piperazine-1-carboxylic acid (2,6-dimethyl-phenyl)-amide] | 221 to 223 °C | ≥ 50% |
| COc1ccc(C)cc1NC(=O)Nc1ccc(N2CCN(C(=O)Nc3c(F)cccc3C(F)(F)F)CC2)nc1 [Example 139, 4-{5-[3-(2-methoxy-5-methyl-phenyl)-ureido]-pyridin-2-yl}-piperazine-1-carboxylic acid (2-fluoro-6-trifluoromethyl-phenyl)-amide] | 221 to 222 °C | ≥ 50% |
| COc1ccc(C)cc1NC(=O)Nc1ccc(N2CCN(C(=O)Nc3c(Cl)cccc3Cl)CC2)nc1 [Example 140, 4-{5-[3-(2-methoxy-5-methyl-phenyl)-ureido]-pyridin-2-yl}-piperazine-1-carboxylic acid (2,6-dichloro-phenyl)-amide] | 222 to 224 °C | ≥ 50% |
| CCOc1ccccc1NC(=O)Nc1ccc(N2CCN(C(=O)Nc3c(C)cccc3Cl)CC2)nc1 [Example 141, 4-{5-[3-(2-ethoxy-phenyl)-ureido]-pyridin-2-yl}-piperazine-1-carboxylic acid (2-chloro-6-methyl-phenyl)-amide] | 185 to 186 °C | ≥ 50% |
| CCOc1ccccc1NC(=O)Nc1ccc(N2CCN(C(=O)Nc3c(C)cccc3C)CC2)nc1 [Example 142, 4-{5-[3-(2-ethoxy-phenyl)-ureido]-pyridin-2-yl}-piperazine-1-carboxylic acid (2,6-dimethyl-phenyl)-amide] | 188 to 190 °C | ≥ 50% |
| CCOc1ccccc1NC(=O)Nc1ccc(N2CCN(C(=O)Nc3c(F)cccc3C(F)(F)F)CC2)nc1 [Example 143, 4-{5-[3-(2-ethoxy-phenyl)-ureido]-pyridin-2-yl}-piperazine-1-carboxylic acid (2-fluoro-6-trifluoromethyl-phenyl)-amide] | 177 to 179 °C | ≥ 50% |
| CCOc1ccccc1NC(=O)Nc1ccc(N2CCN(C(=O)Nc3c(Cl)cccc3Cl)CC2)nc1 [Example 144, 4-{5-[3-(2-ethoxy-phenyl)-ureido]-pyridin-2-yl}-piperazine-1-carboxylic acid (2,6-dichloro-phenyl)-amide] | 170 to 172 °C | ≥ 50% |
| CCOc1ccccc1NC(=O)Nc1ccc(N2CCN(C(=O)Nc3ccc(OC)cc3C)CC2)nc1 [Example 145, 4-{5-[3-(2-ethoxy-phenyl)-ureido]-pyridin-2-yl}-piperazine-1-carboxylic acid (4-methoxy-2-methyl-phenyl)-amide] | 166 to 168 °C | ≥ 50% |

— patent publication US20070249620A1, “Urea Derivative” (priority 2004, published 2007)
